Reference: patent US5840711A, “Compositions containing lithium inorganic salts and anti-viral drugs and method of treating viral infections such as acquired immunodeficiency syndrome” (priority 1997, dated 1998)
“Also recorded” adds a separate entry of the source. Where two headings read alike, the source gives them in different places.

Columns and labels:
LP-BM5 MuLV [1] = tested on: LP-BM5 MuLV
From the text: Female C57BL6 mice (8-10 weeks of age) were purchased from Harlan, Indianapolis, Ind., USA. All animals were quarantined for a minimum of 1-week before experimental use. Animals were housed in plastic cages and fed Purina lab chow and water ad libitum.
LP-BM5 MuLV isolate used in these studies was originally derived from a bone marrow stromal cell line (SC-1) harvested from animals infected with mink cell MuLV (Morse et al., 1992) and is routinely maintained in the laboratory. LP-BM5 MuLV is a retrovirus mixture containing replication-competent helper B-trophic ecotropic mink cell focus forming (MCF) virus and an etiologic 4.9-kb replication defective genome termed EM5-def, susceptibility to which depends on the presence of the FV-1b genotype permissive for B-trophic virus replication (Morse et al., 1992). Therefore, the viral pool permissive for B-trophic virus replication (Morse et al., 1992) consisted of a mixture of B-tropic ecotropic and B-tropic mink cell focus-inducing murine immunodeficiency virus (MuLV). The titers of ecotropic and MCF MuLV were determined by XC plaque assay in SC-1 cells or by SC-1 UV-mink assay. […] To minimize exogenous infection, mice were maintained in microisolator cages and handled in accordance with the NIH Guide for the Care and Use of Laboratory Animals (NIH No. 85-23, 1985). Cages, bedding and food were autoclaved prior to use and all cages and animal handling or monitoring were performed in laminar air flow hoods. Ventilation and air flow in the animal facility was set to 12 changes/h. Room temperatures were regulated at 72°±2° F. and the rooms were on automatic 12-h light/dark cycles. One hundred and twenty mice were infected by i.p. injection of 0.25 ml of LP-BM5 MuLV virus-stock (10 μg of total protein) harvested from the SC-1 cell line following 3-day in vitro culture. The development of MAIDS induced by virus was monitored by physical findings (Morse et al., 1992). […] Increased systemic levels of IgM were used to monitor the development of LP-BM5 MuLV-induced disease.
In order to evaluate the ability of lithium to influence hematopoiesis in immunodeficient virus-infected animals, the following studies were performed. One hundred and twenty mice infected with LP-BM5 were divided into two groups, i.e., 60 virus-infected mice served as virus controls and the other group was administered lithium carbonate (Li2 CO3, ultra-pure; Alpha Therapeutics, Danville, Mass. USA) placed in the drinking water at a concentration of 1 mM as previously described from this laboratory (Gallicchio et al., 1993). Lithium treatment was initiated 7 days prior to virus infection. […] Lithium was initiated 7 days before virus infection and was continued for the duration of the study. Plasma lithium levels from animals bled by cardiac puncture on the days of examination were monitored by use of flame photometry (Model no. 943, IL Instruments, Lexington, Mass. USA). Virus-infected controls and virus-infected mice treated with lithium were serially sacrificed 1, 5, 9, 13, 17 and 21 weeks following virus inoculation for determination of lithium treatment on hematopoiesis following administration in LP-BMS5 MuLV infected animals.

herpes simplex virus = conditions: in vitro, HSV; cited from earlier work
[2] = tested on: HIV-positive patient with severe Factor VIII deficiency; conditions: cited from earlier work
LP-BM5 MuLV [3] = conditions: cited from earlier work
HIV-infected patients = conditions: cited from earlier work
normal bone marrow cells = conditions: in vitro with normal bone marrow cells (previous work; b10 also in vivo mice); cited from earlier work
[4] = tested on: BFU-E of Normal Bone Marrow
Description: (§1) The laboratory studies were performed in vitro to evaluate whether either drugs, i.e., with or without their lithium formulation when combined with either normal bone marrow cells or bone marrow cells taken from MAIDS animals would express: 1) differences in their toxicity profile when measured in culture and 2) differences comparing the responses using normal bone marrow cells versus bone marrow cells from MAIDS animals, in other words, comparing viral-infected cells with non-viral infected cells.
(§2) This table is interpreted as follows.

[5] = tested on: CFU-GM of Normal Bone Marrow
Description: as §1, §2

[6] = tested on: CFU-GM (Myeloid) of normal bone marrow cells; assay: AZT bone marrow toxicity in vitro, CFU-GM colony formation; type: cell-based
From the text: (§3) This is a standard practice.

[7] = tested on: CFU-Meg (Megakaryocyte) of normal bone marrow cells; assay: AZT bone marrow toxicity in vitro, CFU-Meg colony formation; type: cell-based
From the text: as §3

[8] = tested on: BFU-E (Erythroid) of normal bone marrow cells; assay: AZT bone marrow toxicity in vitro, BFU-E colony formation; type: cell-based
From the text: as §3

AIDS patients = conditions: clinical use; listed as zidovudine (AZT); cited from earlier work
[9] = week 3, Lithium Control (1 mM), listed as lithium

Description for Normal Mice: C57BL6 were administered dose-escalation AZT (1.0 mg/ml and 2.5 mg/ml) for a period of 4-weeks. […] Animals were analyzed on a weekly basis for their peripheral blood indices.
C57BL6 female mice were purchased from Harlan, Indianapolis, Ind., USA used at 6-12 weeks of age, and housed 5 to a cage. […] Mice received Purina Autoclavable Chow and water ad libitum until initiation of the study. Thereafter, water containing lithium was supplied to the animals and daily water consumption was monitored.
In order to evaluate the ability of lithium to influence the hematopoietic toxicity associated with AZT in mice that had already been exposed to AZT, the following protocol was established. […] AZT and lithium were added to the animal drinking water Groups II, III, V and VI began their AZT all at the same time. Groups V and VI, at the beginning of week 5, received lithium that was added to their water supply. All treated groups then continued to receive AZT for an additional 4 weeks, equaling a total treatment-study period lasting 8-weeks in duration.
Animals were serially sacrificed, at least three to a group, on a weekly basis, for eight consecutive weeks. Animals were bled from the tail vein (600 μl) for assessment of peripheral blood indices; i.e., packed red cell volume, white blood cell, and platelet counts. In addition, at least one femur per animal was obtained and the bone marrow cellularity was calculated using standard laboratory procedures.
Mean±SE for values comparing control with experimental, utilizing duplicate studies were determined and analyzed using the two-sample ranks test of Wilcoxam-White (P<0.05) to determine significance.

## O=C([O-])[O-].[Li+].[Li+] [Lithium, lithium carbonate]
LP-BM5 MuLV [1]; murine model (MAIDS)
  Immune function status: significantly improves immune function status
LP-BM5 MuLV [1]; versus animals not receiving lithium
  Hematopoiesis in MAIDS mice: significant hematopoiesis
LP-BM5 MuLV [1]; versus viral controls
  Bone marrow BFU-E: increased BFU-E that peaked on week 9
  Bone marrow CFU-GM: increased CFU-GM compared to viral controls that peaked on week 9
  Bone marrow CFU-Meg: increased, although not until week 17 of examination
  Splenic BFU-E: increased at all time points examined
  Splenic CFU-GM: significantly increased at all time points compared to viral controls
  Splenic CFU-Meg: increased significantly
LP-BM5 MuLV [1]; versus virus control group, FIG. 2a
  Absolute neutrophils: increased
LP-BM5 MuLV [1]; versus virus control group, FIG. 2b
  Absolute lymphocytes: increased
LP-BM5 MuLV [1]; versus virus-control group, FIG. 1a
  Effect on packed red cell volume (hematocrit): decreased the reduction
LP-BM5 MuLV [1]; versus virus-control group, FIG. 1b
  Effect on white blood cell count: decreased the reduction
LP-BM5 MuLV [1]; versus virus-control group, FIG. 1c
  Effect on platelets: decreased the reduction
LP-BM5 MuLV [1]; virus-infected mice receiving lithium
  Signs of lithium toxicity, i.e., tremor: no demonstrable signs of lithium toxicity
Normal Mice; AZT with lithium treatment
  Reduction in eosinophils: prevented this reduction in eosinophils observed with AZT
Normal Mice; following lithium, each week examined, both AZT groups
  Thrombocytopenia: no thrombocytopenia
Normal Mice; week 1, Lithium Control (1 mM)
  Eosinophils: 100 Percent Control
  Hematocrit: 98 Percent Control
  Neutrophils: 100 Percent Control
  Platelets: 100 Percent Control
Normal Mice; week 2, Lithium Control (1 mM)
  Eosinophils: 100 Percent Control
  Hematocrit: 82 Percent Control
  Neutrophils: 54 Percent Control
  Platelets: 93 Percent Control
Normal Mice; week 3, Lithium Control (1 mM)
  Eosinophils: 100 Percent Control
  Hematocrit: 101 Percent Control
  Neutrophils: 65 Percent Control
  Platelets: 93 Percent Control
Normal Mice; [9]
  Neutrophils: 120 Percent Control
  Platelets: 116 Percent Control
Normal Mice; week 4, Lithium Control (1 mM)
  Eosinophils: 100 Percent Control
  Hematocrit: 100 Percent Control
  Neutrophils: 61 Percent Control
  Platelets: 74 Percent Control
Normal Mice; week 5, Lithium Control (1 mM)
  Eosinophils: 100 Percent Control
  Hematocrit: 98 Percent Control
  Neutrophils: 54 Percent Control
  Platelets: 69 Percent Control
Normal Mice; week 6, Lithium Control (1 mM)
  Eosinophils: 146 Percent Control
  Hematocrit: 94 Percent Control
  Neutrophils: 98 Percent Control
  Platelets: 69 Percent Control
Normal Mice; week 7, Lithium Control (1 mM)
  Eosinophils: 100 Percent Control
  Hematocrit: 98 Percent Control
  Neutrophils: 120 Percent Control
  Platelets: 116 Percent Control
Normal Mice; week 8 (+ lithium from week 5 in combination group), AZT 1.0 mg/ml
  Eosinophils: 110 Percent Control
Normal Mice; week 8 (+ lithium from week 5 in combination group), AZT 2.5 mg/ml (AZT column headed 2 mg/ml)
  Eosinophils: 164 Percent Control
Normal Mice; week 8, lithium versus AZT controls
  Hematocrit toxicity: the same level of toxicity as the AZT controls
Normal Mice; week 8, Lithium Control (1 mM)
  Eosinophils: 107 Percent Control
  Hematocrit: 88 Percent Control
  Neutrophils: 90 Percent Control
  Platelets: 79 Percent Control
Herpes simplex virus
  DNA polymerase activity: inhibition of DNA polymerase activity
[2]; within 3 days, 300 mg t.i.d. with methylprednisolone
  Absolute neutrophil and platelet counts: a remarkable rise
LP-BM5 MuLV [3]; LP-BM5 MuLV animals (Gallicchio et al., 1994)
  Splenomegaly and hypergammaglobulinemia (IgM): reduction in the splenomegaly and hypergammaglobulinemia
LP-BM5 MuLV [3]; MAIDS model in vivo (Gallicchio et al., 1995)
  Toxicity following dose-escalation of AZT: reduced the immunochematopoietic toxicity
LP-BM5 MuLV [3]; in vivo, with zidovudine (literature)
  Hematopoietic progenitor cells from bone marrow or spleen: effectively increased the number of hematopoietic progenitor cells
HIV-infected patients; 5 AIDS patients (report)
  Patients responding with neutrophilia: 3 of 5 patients
HIV-infected patients; AIDS patients (Worthington 1990)
  Patients responding with neutrophilia: one of three
HIV-infected patients
  Patients tolerating higher doses of AZT (up to 1,000 mg): 3 of the 5 patients
  Patients with significant hematopoiesis: Three of the five patients
HIV-infected patients; lithium at least 4 weeks, no AZT (Parenti et al., 1988)
  Patients responding with neutrophilia: 6 of 7
HIV-infected patients; no AZT (Parenti et al., 1988)
  Lithium toxicity: further lithium usage was limited due to the presence of lithium toxicity
HIV-infected patients; with zidovudine (Herbert et al., 1988)
  Patients demonstrating significant hematopoiesis: Three of the 5
Normal bone marrow cells
  Myelosuppression and marrow toxicity of AZT: reduced the myelosuppression and marrow toxicity of AZT significantly

## 2,3'-Dideoxycytosine [ddC]
[4]
  CC50: 0.6 µM
[5]
  CC50: 10 µM

## 2',2'-Dideoxyinosine [ddI]
[4]
  CC50: 1 µM
[5]
  CC50: 100 µM

## Cc1cn([C@H]2C[C@H](N=[N+]=[N-])[C@@H](CO)O2)c(=O)[nH]c1=O [AZT, 3'-azido-3'-deoxythymidine]
[6]; AZT 0.01 μM
  CFU-GM (Myeloid) colonies: 53.5 ± 3
[6]; AZT 0.1 μM
  CFU-GM (Myeloid) colonies: 39.5 ± 3
[6]; AZT 1.0 μM
  CFU-GM (Myeloid) colonies: 28.5 ± 4
[6]; AZT 10.0 μM
  CFU-GM (Myeloid) colonies: 14.5 ± 3
[7]; AZT 0.01 μM
  CFU-Meg (Megakaryocyte) colonies: 16.0 ± 3
[7]; AZT 0.1 μM
  CFU-Meg (Megakaryocyte) colonies: 10.5 ± 3
[7]; AZT 1.0 μM
  CFU-Meg (Megakaryocyte) colonies: 6.5 ± 3
[7]; AZT 10.0 μM
  CFU-Meg (Megakaryocyte) colonies: 2.5 ± 2
[8]; AZT 0.01 μM
  BFU-E (Erythroid) colonies: 43.5 ± 5
[8]; AZT 0.1 μM
  BFU-E (Erythroid) colonies: 37.5 ± 3
[8]; AZT 1.0 μM
  BFU-E (Erythroid) colonies: 21.5 ± 5
[8]; AZT 10.0 μM
  BFU-E (Erythroid) colonies: 14.5 ± 2
Normal Mice; mouse, in vivo
  Lymphocytes and monocytes: Lower, but less significant, levels
[2]; after 6 months
  Toxicity leading to discontinuation: thrombocytopenia, neutropenia, and anemia
AIDS patients
  Toxicity of AZT: myelosuppression and bone marrow toxicity; also recorded: the development of virus resistance and bone marrow suppression
HIV-infected patients
  Tolerated AZT dose with lithium: up to 1,000 mg
HIV-infected patients; without observable signs of toxicity (Herbert et al., 1988)
  Tolerated zidovudine dose with lithium: up to 1000 mg/day
